Columns and labels:
normal pooled plasma = assay: Anticoagulation activity, Activated Partial Thromboplastin Time (APTT) test; details: concentration required to double clotting time
Description: The following test measures anticoagulant activity of the oligomers of the present invention and utilizes the Activated Partial Thromboplastin Time (APTT) test, with the following procedures.
To an assay cuvette is added 100 µl of normal pooled plasma (George King Biomedical Inc., Kansas) and […] of a solution containing the test compound in aqueous 50 mM Tris hydrochloride at pH 7.5 (0.2 mg of sample in one ml buffer). The sample is placed in a MLA coagulation timer which automatically maintains the sample at 37°C for 2.5 minutes, 100 µl of actin activated cephaloplastin reagent is injected, kept 5 minutes, 100 µl of 35 mM CaCI is injected, and clot formation is determined photometrically and the clotting time recorded. Each example is examined at a variety of concentrations, generally from about .025 mg/ml to about 1 mg/ml, and the clotting times are graphed as a function of concentration. From the graphic results, the concentration required to double clotting time (ICDCT) is calculated by linear interpolation.

vWF Binding to Gp1b = target: T1, vWF Binding to Gp1b (Homo sapiens, UniProt P04275+P07359); assay: Inhibition of ristocetin-induced binding of 125I-vWF to formalin-fixed platelets; details: ristocetin 1.0 mg/ml; for Ristocetin-Induced Inhibition of vWF Binding to Gp1b: at 100 µg/ml
T1 construct: multimeric vWF (isolated from human plasma cryoprecipitate); Formalin-fixed platelets, prepared according to the method of MacFarlane; from tissue; host or cells: vWF from human plasma cryoprecipitate; GPIb on formalin-fixed platelets
Description: The binding of vWf (vonWillebrand Factor) to glycoprotein Ib is measured in one of two experimental systems, in the presence of either ristocetin or botrocetin as modulators of binding. The ristocetin modulated binding is described herein.
Formalin-fixed platelets, prepared according to the method of MacFarlane, D. et al., Thromb. Diath. Haemorrh. 34, 306-308 (1975), were preincubated at room temperature for 15 minutes with specified dilutions of oligomers according to the present invention. Ristocetin, (Sigma, St. Louis, MO) diluted to a final concentration of 1.0 mg/ml, and ^125I-labelled multimeric vWF (isolated from human plasma cryoprecipitate according to the method of Fulcher, C.A. et al. Proc. Natl. Acad. Sci. USA, 79, 1648-1652 (1982), and labelled according to the method of Fraker, P.J. et al. Biochem. Biophys. Res. Commun., 80, 849-857 (1978)) were then added to the incubation mixture, and the amount of ^125I- vWF bound to the platelets was determined. ^125I-vWF binding to the platelets was referenced against 100% binding which was defined as the amount of ^125I- vWF bound in the absence of added oligomer compound. The method for measuring vWF binding is reported in detail in Ruggeri et al., J. Clin. Invest., 72, 1-12, (1983), herein incorporated by reference.

[1] = target: T2, ESb mouse lymphoma heparanase (Mus musculus, UniProt Q6YGZ1); assay: Inhibition of heparanase activity (degradation of labeled ECM heparan sulfate); format: biochemical; details: 24 hours incubation with labeled ECM
T2 construct: endogenous in cells; host or cells: ESb mouse lymphoma cells
T2 sequence (Q6YGZ1 28-535): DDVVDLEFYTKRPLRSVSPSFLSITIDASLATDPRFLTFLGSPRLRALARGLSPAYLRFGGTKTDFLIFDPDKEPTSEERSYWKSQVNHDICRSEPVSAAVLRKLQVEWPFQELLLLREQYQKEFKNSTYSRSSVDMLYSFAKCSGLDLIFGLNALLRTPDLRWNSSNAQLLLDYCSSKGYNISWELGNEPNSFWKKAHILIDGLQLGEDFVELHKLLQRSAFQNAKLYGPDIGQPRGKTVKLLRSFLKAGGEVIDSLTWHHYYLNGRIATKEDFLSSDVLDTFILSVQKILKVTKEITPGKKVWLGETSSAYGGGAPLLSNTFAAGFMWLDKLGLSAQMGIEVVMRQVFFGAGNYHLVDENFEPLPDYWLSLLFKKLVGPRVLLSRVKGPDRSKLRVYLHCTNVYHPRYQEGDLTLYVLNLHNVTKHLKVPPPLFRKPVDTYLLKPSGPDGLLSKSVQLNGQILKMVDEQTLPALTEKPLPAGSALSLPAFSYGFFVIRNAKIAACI
Description: Heparanase is an endoglucuronidase capable of degrading […] (HS) at specific intrachain sites.
The ability of compounds of the present invention to inhibit lymphomacell derived heparanase is tested in the assay system described by Vlodavsky et al., Cancer Research 43, 2704-2711 (1983). […] labeled ECM is incubated for 24 hours with ESb mouse lymphoma heparanase in the presence of various concentrations of the oligomers tested. Degradation of the HS is followed by gel filtration of the supematants. Heparanase activity is expressed as the total amount of labeled low-molecular-weight fragments released from the EMC substrate.

[2] = test system: human fixed thrombin activated platelets; assay: Platelet aggregation inhibition (fibrinogen-induced); format: cell-based; details: human fibrinogen added
Description: The method for measuring platelet aggregation inhibition is essentially that of Ruggeri, et al., Proc. Natl. Acad. Sci. USA, 83, 5708-5712 (1986), using formalin-fixed platelets as prepared by Plow, et al., Proc. Natl. Acad. Sci. USA, 79, 3711-3715 (1982). A given amount of the compound of the present invention or other compound to be tested (10 to 100 µl of a 1 mg/ml solution) is incubated at 37°C with 400 µl of human fixed thrombin activated platelets for 2 minutes. 12.5 µl of human fibrinogen solution is added and aggregation is monitored using a platelet aggregation profiler (Model PAP-4). Controls consist of fibrinogen added to incubated platelets and the resulting aggregation is considered as 100%. Percent inhibition in the presence of a given concentration of test compound versus concentration of the compound is plotted and the concentration required to give 50% inhibition (IC50) is determined.

T1 sequence (P04275 764-2813 limits assumed): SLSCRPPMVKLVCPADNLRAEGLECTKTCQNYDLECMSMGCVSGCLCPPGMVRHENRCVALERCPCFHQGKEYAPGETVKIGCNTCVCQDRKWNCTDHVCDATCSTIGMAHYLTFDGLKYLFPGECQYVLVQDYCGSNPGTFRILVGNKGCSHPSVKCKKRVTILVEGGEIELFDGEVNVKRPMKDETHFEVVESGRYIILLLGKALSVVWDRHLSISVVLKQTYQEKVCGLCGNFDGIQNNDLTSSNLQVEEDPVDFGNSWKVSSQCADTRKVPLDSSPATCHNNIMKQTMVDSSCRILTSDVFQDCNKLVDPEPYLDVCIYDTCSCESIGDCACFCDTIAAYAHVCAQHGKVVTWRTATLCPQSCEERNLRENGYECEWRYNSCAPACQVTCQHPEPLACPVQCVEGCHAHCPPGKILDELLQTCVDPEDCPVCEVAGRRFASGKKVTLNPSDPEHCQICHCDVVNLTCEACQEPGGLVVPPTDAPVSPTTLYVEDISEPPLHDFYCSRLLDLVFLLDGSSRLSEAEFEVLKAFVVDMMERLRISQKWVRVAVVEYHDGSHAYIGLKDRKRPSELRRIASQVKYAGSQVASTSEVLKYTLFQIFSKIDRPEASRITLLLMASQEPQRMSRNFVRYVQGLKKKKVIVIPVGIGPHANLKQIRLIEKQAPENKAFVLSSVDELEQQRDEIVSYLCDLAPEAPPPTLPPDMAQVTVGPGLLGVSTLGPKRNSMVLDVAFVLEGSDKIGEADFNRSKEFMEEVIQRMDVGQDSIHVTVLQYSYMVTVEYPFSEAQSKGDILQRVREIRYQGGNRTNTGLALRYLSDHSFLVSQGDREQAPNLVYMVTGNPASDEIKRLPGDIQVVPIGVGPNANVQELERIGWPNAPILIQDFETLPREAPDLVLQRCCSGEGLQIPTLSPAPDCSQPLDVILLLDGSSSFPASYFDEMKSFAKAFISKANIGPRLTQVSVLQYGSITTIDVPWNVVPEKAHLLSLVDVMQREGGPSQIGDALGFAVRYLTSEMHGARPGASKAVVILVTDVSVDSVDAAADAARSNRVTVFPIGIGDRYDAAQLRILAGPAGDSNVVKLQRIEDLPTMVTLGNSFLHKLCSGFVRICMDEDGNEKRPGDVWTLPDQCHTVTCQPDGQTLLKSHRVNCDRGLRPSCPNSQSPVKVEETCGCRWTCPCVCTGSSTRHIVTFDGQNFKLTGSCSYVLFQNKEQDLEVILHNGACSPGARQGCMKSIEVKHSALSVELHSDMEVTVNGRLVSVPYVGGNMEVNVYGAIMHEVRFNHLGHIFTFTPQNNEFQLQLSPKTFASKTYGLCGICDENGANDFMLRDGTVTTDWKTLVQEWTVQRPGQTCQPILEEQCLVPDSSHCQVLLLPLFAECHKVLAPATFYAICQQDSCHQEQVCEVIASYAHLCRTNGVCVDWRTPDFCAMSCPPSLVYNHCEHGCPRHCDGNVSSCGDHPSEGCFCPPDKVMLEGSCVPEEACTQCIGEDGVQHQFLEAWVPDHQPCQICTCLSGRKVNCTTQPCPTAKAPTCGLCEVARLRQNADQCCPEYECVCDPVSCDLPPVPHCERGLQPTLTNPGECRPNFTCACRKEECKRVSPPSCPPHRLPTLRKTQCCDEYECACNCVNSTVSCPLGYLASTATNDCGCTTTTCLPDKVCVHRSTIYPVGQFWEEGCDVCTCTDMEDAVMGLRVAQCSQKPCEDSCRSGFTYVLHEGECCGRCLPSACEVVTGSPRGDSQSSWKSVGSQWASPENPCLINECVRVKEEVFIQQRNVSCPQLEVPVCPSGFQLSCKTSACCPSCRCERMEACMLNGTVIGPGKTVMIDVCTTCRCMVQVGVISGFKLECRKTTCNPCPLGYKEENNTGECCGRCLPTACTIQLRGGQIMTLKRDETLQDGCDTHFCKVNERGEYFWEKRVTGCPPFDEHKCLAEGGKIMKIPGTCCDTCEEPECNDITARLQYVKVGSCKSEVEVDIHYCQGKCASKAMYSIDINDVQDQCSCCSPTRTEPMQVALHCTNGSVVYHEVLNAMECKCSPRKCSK
T1 sequence (P07359 17-652): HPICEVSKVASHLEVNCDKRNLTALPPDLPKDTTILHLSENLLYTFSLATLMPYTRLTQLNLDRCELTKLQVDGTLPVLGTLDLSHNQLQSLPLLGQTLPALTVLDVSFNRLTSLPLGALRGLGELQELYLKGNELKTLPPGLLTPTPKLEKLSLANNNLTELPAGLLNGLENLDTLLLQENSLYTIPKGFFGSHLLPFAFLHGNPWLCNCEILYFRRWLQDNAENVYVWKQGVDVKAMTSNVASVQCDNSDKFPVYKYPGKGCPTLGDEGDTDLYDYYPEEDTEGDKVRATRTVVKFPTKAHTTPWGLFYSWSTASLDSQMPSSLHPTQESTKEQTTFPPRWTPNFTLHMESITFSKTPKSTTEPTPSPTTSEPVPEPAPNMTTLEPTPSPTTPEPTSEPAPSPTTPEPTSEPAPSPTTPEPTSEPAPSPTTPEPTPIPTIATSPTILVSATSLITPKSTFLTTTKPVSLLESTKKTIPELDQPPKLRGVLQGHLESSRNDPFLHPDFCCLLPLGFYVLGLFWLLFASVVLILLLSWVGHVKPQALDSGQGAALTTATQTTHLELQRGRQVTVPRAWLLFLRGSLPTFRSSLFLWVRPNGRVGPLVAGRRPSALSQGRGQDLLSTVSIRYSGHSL

| Compound | APTT ICDCT (normal pooled plasma) [µg/mL] | Ristocetin-Induced Inhibition of vWF Binding to Gp1b IC50 (vWF Binding to Gp1b) [µg/mL] | IC50 (vWF Binding to Gp1b) [µM] | % Inhibition of Heparanase Activity (5µg/ml) [1] [%] | Platelet Aggregation IC50 [2] [µg/mL] | Ristocetin-Induced Inhibition of vWF Binding to Gp1b (vWF Binding to Gp1b) [% at 100 µg/ml] |
| --- | --- | --- | --- | --- | --- | --- |
| COc1ccc(CCC(=O)O)c(COc2cc(CCC(=O)O)c(COc3cc(CCC(=O)O)c(COc4cc(CCC(=O)O)c(COc5cc(CCC(=O)O)ccc5OC)cc4OC)cc3OC)cc2OC)c1 [Ex12, Step 11, 2-[4-[4-[4-[[5-(2-carboxyethyl)-2-methoxy]phenoxymethyl]-[5-(2-carboxyethyl)-2-methoxy]phenoxymethyl]-[5-(2-carboxyethyl)-2-methoxy]phenoxymethyl]-[5-(2-carboxyethyl)-2-methoxy]phenoxymethyl]-4-methoxyhydrocinnamic acid] | >250 | >100 |  |  |  |  |
| O=C(O)CCc1ccc(O)c(Cc2cc(CCC(=O)O)cc(Cc3cc(CCC(=O)O)cc(Cc4cc(CCC(=O)O)ccc4O)c3O)c2O)c1 [Ex 1, Step 3, bis-[5-(2-carboxyethyl)-3-[5-(2-carboxyethyl)-2-hydroxybenzyl]2-hydroxyphenyl]methane] | >250 |  | > 143 |  |  |  |
| COc1cc(C)c(CCC(=O)O)cc1Cc1cc(OC)c(Cc2cc(OC)c(Cc3cc(OC)c(Cc4cc(OC)c(Cc5cc(OC)c(Cc6cc(OC)c(Cc7cc(O)ccc7CCC(=O)O)cc6CCC(=O)O)cc5CCC(=O)O)cc4CCC(=O)O)cc3CCC(=O)O)cc2CCC(=O)O)cc1CCC(=O)O [Ex 5, Step 2, 5-[4-[4-[4-[4-[4-[4-[[2-(2-carboxyethyl)-5-hydroxy]benzyl]-[2-(2-carboxyethyl)-5-methoxy]benzyl]-[2-(2-carboxyethyl)-5-methoxy]benzyl]-[2-(2-carboxyethyl)-5-methoxy]benzyl]-[2-(2-carboxyethyl)-5-methoxy]benzyl]-[2-(2-carboxyethyl)-5-methoxy]benzyl]-[2-(2-carboxyethyl)-5-methoxy]benzyl]-4-methoxy-2-methylhydrocinnamic acid] | 37 |  |  | 20 | >1000 |  |
| O=C(O)CCc1cc(Cc2cc(O)c(Cc3cc(O)c(Cc4cc(O)ccc4CCC(=O)O)cc3CCC(=O)O)cc2CCC(=O)O)c(O)cc1CCc1cc(O)c(Cc2cc(O)c(Cc3cc(O)c(Cc4cc(O)ccc4CCC(=O)O)cc3CCC(=O)O)cc2CCC(=O)O)cc1CCC(=O)O [Ex 6, 1,2-bis-[4-[4-[4-[[2-(2-carboxyethyl)-5-hydroxy]benzyl]-[2-(2-carboxyethyl)-5-hydroxy]benzyl]-(2-(2-carboxyethyl)-5-hydroxy]benzyl]-[2-(2-carboxyethyl)-5-hydroxy]phenyl]ethane] | 387 |  |  |  | >1000 | 42 |
| COc1cc(CCc2cc(OC)c(Cc3cc(OC)c(Cc4cc(OC)c(Cc5cc(O)ccc5CCC(=O)O)cc4CCC(=O)O)cc3CCC(=O)O)cc2CCC(=O)O)c(CCC(=O)O)cc1Cc1cc(OC)c(Cc2cc(OC)c(Cc3cc(O)ccc3CCC(=O)O)cc2CCC(=O)O)cc1CCC(=O)O [Ex 7, 1,2-bis-[4-[4-[4-[[2-(2-carboxyethyl)-5-hydroxy]benzyl]-[2-(2-carboxyethyl)-5-methoxy]benzyl]-[2-(2-carboxyethyl)-5-methoxy]benzyl]-[2-(2-carboxyethyl)-5-methoxy]phenyl]ethane] | 500 |  |  |  |  | 17 |
| COc1cc(Cc2cc(CCC(=O)O)c(C)cc2O)c(CCC(=O)O)cc1Cc1cc(OC)c(Cc2cc(OC)c(Cc3cc(OC)c(Cc4cc(OC)c(Cc5cc(OC)c(Cc6cc(OC)c(Cc7cc(OC)c(Cc8cc(OC)c(Cc9cc(OC)c(Cc%10cc(OC)c(Cc%11cc(OC)c(Cc%12cc(OC)c(Cc%13cc(OC)c(Cc%14cc(O)ccc%14CCC(=O)O)cc%13CCC(=O)O)cc%12CCC(=O)O)cc%11CCC(=O)O)cc%10CCC(=O)O)cc9CCC(=O)O)cc8CCC(=O)O)cc7CCC(=O)O)cc6CCC(=O)O)cc5CCC(=O)O)cc4CCC(=O)O)cc3CCC(=O)O)cc2CCC(=O)O)cc1CCC(=O)O [Ex 8] | 35 |  |  | 70 |  |  |
| COC(=O)CCc1cc(OCc2cc(OC)c(OCc3cc(OC)c(OCc4cc(OC)c(OC(C)=O)cc4CCC(=O)OC)cc3CCC(=O)OC)cc2CCC(=O)OC)c(OC)cc1CO [Ex 10, Step 13] | >250 |  |  |  |  |  |

Reference: patent EP0585371B1, “AROMATIC OLIGOMERIC COMPOUNDS USEFUL AS MIMICS OF BIOACTIVE MACROMOLECULES” (RHONE-POULENC RORER INTERNATIONAL (HOLDINGS) INC., priority 1991, dated 1992)
